{
  "source": "patent US20240108740A1",
  "about": "“THERAPEUTIC COMPOSITIONS INCLUDING SPN10 AND USES THEREOF” (Stealth BioTherapeutics Inc., priority 2022, published 2024)",
  "key": {"Sprague-Dawley rats": {"tested_on": "Sprague-Dawley rats", "assay": "Example 43: cisplatin-induced acute renal injury", "assay_type": "in vivo, rat", "conditions": "cisplatin 7 mg/kg i.p.", "protocol": "Experimental Protocol: Sprague-Dawley rats (350-400 g) will be given a single dose of cisplatin (7 mg/kg) intraperitoneally (i.p.) on Day 1. Subjects will receive peptide conjugates (3 mg/kg) (n=8), aromatic-cationic peptides (an equivalent molar dose of aromatic-cationic peptide based on the concentration of the aromatic-cationic peptide administered in the peptide conjugate treatment group) (n=8), SPN10(s) (an equivalent molar dose of SPN10 based on the concentration of SPN10 administered in the peptide conjugate treatment group) (n=8), SPN10(s) in combination with aromatic-cationic peptides (e.g., an equivalent molar dose of SPN10 based on the concentration of SPN10 administered in the peptide conjugate treatment group and an equivalent molar dose of aromatic-cationic peptide based on the concentration of aromatic-cationic peptide administered in the peptide conjugate treatment group) (n=8) or saline vehicle (n=8) subcutaneously just prior to cisplatin administration, and once daily for 3 additional days. Subjects will be placed in metabolic cages for the final 24 hours of the trial for urine collection. At the end of the trial, blood samples will be withdrawn from tail veins and the kidneys harvested.\nRenal function: Renal function will be assessed by measuring blood urea nitrogen (BUN), serum creatinine, urine creatinine, and urine protein. GFR will be estimated from creatinine clearance, which will be determined from serum and urinary creatinine, and urinary volume.\nRenal Histology: Kidneys will be fixed in 10% neutral-buffered formalin and embedded in paraffin wax for sectioning. Three-micron sections will be stained with periodic acid-Schiff (PAS) and analyzed by light microscopy."}, "Sprague Dawley rats": {"tested_on": "Sprague Dawley rats", "assay": "Example 49: progression of tissue damage following a burn", "conditions": "rat, in vivo", "protocol": "Sprague Dawley rats will be randomized into the following groups; sham-burn (SB), burn with saline treatment (B), burn with peptide conjugate-treatment (BP), burn with aromatic-cationic peptides (BP2), burn with SPN10(s) (BP3), and burn with SPN10(s)+aromatic-cationic peptides (BP4). Band BP, BP2, BP3 and BP4 animals will receive a 30% total body surface area full thickness burns by immersing the dorsal body into 100° C. water for 12 seconds with immediate fluid resuscitation. […] Wound re-epithelialization, contraction, and depth will be assessed via gross morphology and histologically over a period of 21 days. […]\nApoptosis of hair follicles of the skin will be measured using TUNEL labeling and activated caspase-3 immunostaining using skin samples obtained between 0 and 48 hours post-burn. Quantification of TUNEL and caspase-3 staining will be done on digitally acquired images at high power. The number of positive cells per high power field will be determined, and compared among the groups.\n[…] mapping will be performed using Doppler imaging to assess wound blood flow. Two hours post-burn, the dorsum of the animal will be imaged on a scanning laser Doppler apparatus to quantify the superficial blood flow distribution in the skin within and outside of the burn area. For […] mapping, 100 male Sprague-Dawley rats will be used. […]"}, "[1]": {"tested_on": "isolated mouse liver mitochondria", "assay": "Example 20: spontaneous and antimycin-induced H2O2 production by isolated mitochondria", "protocol": "Livers will be harvested from mice, homogenized in ice-cold buffer, and centrifuged at 13800×g for 10 min. The pellet will be washed once, re-suspended in 0.3 mL of wash buffer, and placed on ice until use. H2O2 will be measured using luminol chemiluminescence as described previously (Li, et al., Biochim. Biophys. Acta 1428, 1-12 (1999). 0.1 mg mitochondrial protein will be added to 0.5 mL potassium phosphate buffer (100 mM, pH 8.0) in the presence of vehicle, peptide conjugates, aromatic-cationic peptides, or SPN10(s) with or without aromatic-cationic peptides. 25 mM luminol and 0.7 IU horseradish peroxidase will be added, and chemiluminescence will be monitored with a Chronolog Model 560 aggregometer (Havertown, PA) for 20 minutes at 37° C. The amount of H2O2 produced will be quantified as the area under the curve (AUC) over 20 min, and all data will be normalized to AUC produced by mitochondria alone."}},
  "note": "Residues, ends and D or L forms follow the SMILES beside them.",
  "data": [
    {"smiles": "N=C(N)NCCC[C@H](NC(=O)[C@@H](N)Cc1c[nH]c2ccccc12)C(=O)N[C@@H](Cc1c[nH]c2ccccc12)C(=O)N[C@@H](CCCCN)C(N)=O", "note": "[SPN10, H-L-Trp-L-Arg-L-Trp-L-Lys-NH2] (H-WRWK-NH2)", "values": [
      {"measurement": "increase in BUN after cisplatin", "setting": "Sprague-Dawley rats", "value": "attenuate or prevent this effect"},
      {"measurement": "increase in serum creatinine after cisplatin", "setting": "Sprague-Dawley rats", "value": "attenuate or prevent this effect"},
      {"measurement": "reduction in body weight after cisplatin", "setting": "Sprague-Dawley rats", "value": "attenuate or prevent this effect"},
      {"measurement": "burn-induced apoptosis and blood flow", "setting": "Sprague Dawley rats", "value": "reduce burn-induced apoptosis and blood flow"},
      {"measurement": "wound healing and progression of burn injuries", "setting": "Sprague Dawley rats", "value": "accelerate wound healing and attenuate the progression of burn injuries"},
      {"measurement": "spontaneous production of H2O2", "setting": "[1]", "value": "dose-dependently reduce the spontaneous production of H2O2"},
      {"measurement": "production of H2O2 induced by antimycin", "setting": "[1]; antimycin", "value": "dose-dependently reduce the production of H2O2 induced by antimycin"}
    ]}
  ]
}
